The source of these data is patent publication US8940720B2, “Macrocycles as factor XIa inhibitors” (Bristol-Myers Squibb Company, priority 2010, dated 2015).

The experiment concerns the target purified human Factor XIa (Homo sapiens (Human), UniProt P03951). Briefly: Factor XIa enzyme inhibition assay (chromogenic substrate S-2366). The class given is biochemical. To be noted: substrate S-2366, pH 7.4. As for the experimental part: The effectiveness of compounds of the present invention as inhibitors of the coagulation Factors XIa, VIIa, IXa, Xa, XIIa, plasma kallikrein or thrombin, can be determined using a relevant purified serine protease, respectively, and an appropriate synthetic substrate. The rate of hydrolysis of the chromogenic or fluorogenic substrate by the relevant serine protease was measured both in the absence and presence of compounds of the present invention. […] A decrease in the rate of absorbance or fluorescence change in the presence of inhibitor is indicative of enzyme inhibition. Such methods are known to one skilled in the art. The results of this assay are expressed as the inhibitory constant, Ki.
Values of Ki were determined by allowing the protease to react with the substrate in the presence of the inhibitor. Reactions were allowed to go for periods of 20-180 minutes (depending on the protease) and the velocities (rate of absorbance or fluorescence change versus time) were measured. The following relationships were used to calculate Ki values: (vo−vs)/vs=I/(Ki(1+S/Km)) for a competitive inhibitor with one binding site; or vs/vo=A+((B−A)/1+((IC50/(I)n))); and Ki=IC50/(1+S/Km) for a competitive inhibitor where: […]

Where a name gives a salt, the structure may show the parent alone. Some results are limits rather than exact numbers.

Sequence of purified human Factor XIa (P03951 388-625): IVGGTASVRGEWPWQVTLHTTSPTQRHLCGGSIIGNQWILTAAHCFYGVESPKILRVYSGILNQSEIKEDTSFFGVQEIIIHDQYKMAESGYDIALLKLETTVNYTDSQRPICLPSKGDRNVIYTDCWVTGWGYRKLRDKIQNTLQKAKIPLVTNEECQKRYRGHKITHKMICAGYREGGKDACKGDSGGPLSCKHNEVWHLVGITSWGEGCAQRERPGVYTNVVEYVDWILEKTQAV
Sequence of purified human Factor XIa (P03951 19-387 partner): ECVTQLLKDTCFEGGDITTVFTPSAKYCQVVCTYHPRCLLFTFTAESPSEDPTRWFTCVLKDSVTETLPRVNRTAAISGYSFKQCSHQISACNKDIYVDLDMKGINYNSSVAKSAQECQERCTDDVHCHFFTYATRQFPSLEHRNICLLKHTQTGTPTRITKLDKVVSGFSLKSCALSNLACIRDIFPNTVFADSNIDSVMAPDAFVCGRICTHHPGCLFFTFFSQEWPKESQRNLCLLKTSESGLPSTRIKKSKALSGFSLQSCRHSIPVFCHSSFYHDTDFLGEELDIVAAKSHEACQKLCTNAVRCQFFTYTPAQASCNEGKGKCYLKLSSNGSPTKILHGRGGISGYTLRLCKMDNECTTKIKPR

Take `CCOC(=O)[C@H]1CCCC[C@H](NC(=O)/C=C/c2cc(Cl)ccc2-n2cnnn2)c2nc(c(C)[nH]2)-c2ccc(NC(=O)OC)cc2N1` [Example I-242, (9R,14S)-14-[(E)-3-(5-Chloro-2-tetrazol-1-yl-phenyl)-acryloylamino]-5-methoxycarbonylamino-17-methyl-8,16,18-triaza-tricyclo[13.2.1.0^2,7]octadeca-1(17),2,4,6,15(18)-pentaene-9-carboxylic acid ethyl ester, bis-trifluoroacetic acid salt]: affinity was put at a Ki of 456 nM.
In the case of `COC(=O)Nc1ccc2c(c1)NC(=O)CCCC[C@H](NC(=O)c1cccc3ccccc13)c1nc-2c[nH]1` [Example I-17], the Ki – broadly, the dissociation constant of the complex between target and ligand, obtained from inhibition or displacement – worked out at 351 nM.
On to `COC(=O)Nc1ccc2c(c1)C(=O)C(F)(F)CCCC[C@H](NC(=O)/C=C/c1cc(Cl)ccc1-n1cnnn1)c1nc-2c[nH]1` [Example I-270, {(S)-14-[(E)-3-(5-Chloro-2-tetrazol-1-yl-phenyl)-acryloylamino]-9,9-difluoro-8-oxo-16,18-diaza-tricyclo[13.2.1.0^2,7]octadeca-1(17),2,4,6,15(18)-pentaen-5-yl}-carbamic acid methyl ester, TFA salt], for which affinity was put at a Ki of 1740 nM.
The compound `COC(=O)Nc1ccc2c(c1)NC(=O)CCCC[C@H](NC(=O)/C=C/c1cc(Cl)ccc1-n1ccnn1)c1nc-2c[nH]1` [Example I-5] yielded an inhibitory constant (Ki) below 5 nM.
The figure for `COC(=O)Nc1ccc2c(c1)NCCCCC[C@H](NC(=O)/C=C/c1cc(Cl)ccc1-n1cnnn1)c1nc-2c(C#N)[nH]1` [Example I-115, {(S)-14-[(E)-3-(5-Chloro-2-tetrazol-1-yl-phenyl)-acryloylamino]-17-cyano-8,16,18-triaza-tricyclo[13.2.1.0^2,7]octadeca-1(17),2,4,6,15(18)-pentaen-5-yl}-carbamic acid methyl ester, 2 TFA salt] is below 5 nM.
As for `COC(=O)Nc1ccc2c(c1)NCCCCC[C@H](NC(=O)/C=C/c1cc(Cl)ccc1-n1cnnn1)c1nc-2c(C(=O)N(C)C)[nH]1` [Example I-299], the figure is 19 nM; as for `CCOC(=O)[C@H]1CCCC[C@H](NC(=O)/C=C/c2cc(Cl)ccc2-n2cnnn2)c2nc(c(C#N)[nH]2)-c2ccc(NC(=O)OC)cc2N1` [Example I-251, (9R,14S)-14-[(E)-3-(5-Chloro-2-tetrazol-1-yl-phenyl)-acryloylamino]-17-cyano-5-methoxycarbonylamino-8,16,18-triaza-tricyclo[13.2.1.0^2,7]octadeca-1(17),2,4,6,15(18)-pentaene-9-carboxylic acid ethyl ester, 2 TFA], below 5 nM; as for `O=C(/C=C/c1cc(Cl)ccc1-n1cnnn1)N[C@H]1CC=CCCC(=O)Nc2ccccc2C2=NN=C1O2` (mixture of isomers) [Example 122, (E)-3-(5-Chloro-2-tetrazol-1-yl-phenyl)-N-((S)-9-oxo-19-oxa-8,17,18-triaza-tricyclo[14.2.1.0^2,7]nonadeca-1(18),2,4,6,12,16-hexaen-15-yl)-acrylamide, and (Z)-3-(5-Chloro-2-tetrazol-1-yl-phenyl)-N-((S)-9-oxo-19-oxa-8,17,18-triaza-tricyclo[14.2.1.0^2,7]nonadeca-1(18),2,4,6,12,16-hexaen-15-yl)-acrylamide], 25 nM.
As for `COC(=O)Nc1ccc2c(c1)NCCCCC[C@H](NC(=O)/C=C/c1cc(C)ccc1-n1cnnn1)c1nc-2c(C#N)[nH]1` [Example I-268], the figure is 9 nM; as for `COC(=O)Nc1ccc2c(c1)CC(C(=O)N(C)C)CCCC[C@H](NC(=O)/C=C/c1cc(Cl)ccc1-n1cnnn1)c1nc-2c[nH]1` (stereo partly drawn) [Example I-258], 947 nM; as for `COC(=O)Nc1ccc2c(c1)NC(=O)C/C=C/CC(NC(=O)/C=C/c1cc(Cl)ccc1-n1cnnn1)c1cc-2nc(C)n1` (stereo not drawn) [Example 167, {(E)-14-[(E)-3-(5-Chloro-2-tetrazol-1-yl-phenyl)-acryloylamino]-17-methyl-9-oxo-8,16,18-triaza-tricyclo[13.3.1.0^2,7]nonadeca-1(19),2,4,6,11,15,17-heptaen-5-yl}-carbamic acid methyl ester], 157 nM.
Regarding `COC(=O)Nc1ccc2c(c1)N(C(=O)OC)CCCCC[C@H](NC(=O)/C=C/c1cc(Cl)ccc1-n1cnnn1)c1nc-2c[nH]1` [Example I-108], the Ki came to 3870 nM.
Turning to `COC(=O)Nc1ccc2c(c1)NC(=O)CC(O)C(O)C[C@H](NC(=O)/C=C/c1cc(Cl)ccc1-n1cnnn1)c1nc-2c[nH]1` (single isomer, unassigned) [Example 137], the affinity corresponds to a Ki of 192 nM.
`COC(=O)Nc1ccc2c(c1)N[C@@H](CO)CCCC[C@H](NC(=O)/C=C/c1cc(Cl)ccc1-n1cnnn1)c1nc-2c[nH]1` [Example I-77, {(9R,14S)-14-[(E)-3-(5-Chloro-2-tetrazol-1-yl-phenyl)-acryloylamino]-9-hydroxymethyl-8,16,18-triaza-tricyclo[13.2.1.0^2,7]octadeca-1(17),2,4,6,15(18)-pentaen-5-yl}-carbamic acid methyl ester, 2 TFA salt] displayed a Ki below 5 nM.
With `COC(=O)Nc1ccc2c(c1)OCCCCC[C@H](NC(=O)/C=C/c1cc(Cl)ccc1-n1cnnn1)c1nc-2c(Cl)[nH]1` [Example 9, {(S)-17-Chloro-14-[(E)-3-(5-chloro-2-tetrazol-1-yl-phenyl)-acryloylamino]-8-oxa-16,18-diaza-tricyclo[13.2.1.0^2,7]octadeca-1(17),2,4,6,15(18)-pentaen-5-yl}-carbamic acid methyl ester], the Ki was determined as 249 nM.
As for `COC(=O)Nc1ccc2c(c1)NC(C(=O)OC)(C(F)(F)F)CCCC[C@H](NC(=O)/C=C/c1cc(Cl)ccc1-n1cnnn1)c1nc-2c[nH]1` (stereo partly drawn) [Example I-104], the figure is 435 nM; as for `O=C(/C=C/c1cc(Cl)ccc1-n1cnnn1)N[C@H]1CCCCC(=O)Nc2cnccc2-c2ccnc1c2` [Example 138, (E)-3-(5-Chloro-2-tetrazol-1-yl-phenyl)-N-((S)-9-oxo-5,8,16-triaza-tricyclo[13.3.1.0^2,7]nonadeca-1(19),2,4,6,15,17-hexaen-14-yl)-acrylamide, 2 TFA salt], 20 nM.
For the compound `COC(=O)Nc1ccc2c(c1)/N=C/CCCC[C@H](NC(=O)/C=C/c1cc(Cl)ccc1-n1cnnn1)c1nc-2c(F)[nH]1` [Example I-107, {(E)-(S)-14-[(E)-3-(5-Chloro-2-tetrazol-1-yl-phenyl)-acryloylamino]-17-fluoro-8,16,18-triaza-tricyclo[13.2.1.0^2,7]octadeca-1(17),2,4,6,8,15(18)-hexaen-5-yl}-carbamic acid methyl ester, trifluoroacetic acid salt], the affinity corresponds to a Ki of 29 nM.
Consider `COCCOC(=O)Nc1ccc2c(c1)N[C@@H](C(=O)OC)CCCC[C@H](NC(=O)/C=C/c1cc(Cl)ccc1-n1cnnn1)c1nc-2c(C#N)[nH]1` [Example I-278], for which the Ki is below 5 nM.
Compound `COC(=O)Nc1ccc2c(c1)N[C@@H](C(F)(F)F)CCCC[C@H](NC(=O)/C=C/c1cc(Cl)ccc1-n1cnnn1)c1nc-2c(C)[nH]1` [Example I-70] showed a Ki of 270 nM.
The figure for `COC(=O)Nc1ccc2c(c1)NC(C(F)(F)F)CC/C=C/C[C@H](NC(=O)/C=C/c1cc(Cl)ccc1-n1cnnn1)c1nc-2c[nH]1` (stereo partly drawn) [Example I-211] is 2170 nM.
